Measurements reported in ChEMBL document CHEMBL1126999, “Anticonvulsant sugar sulfamates. Potent cyclic sulfate and cyclic sulfite analogues of topiramate” (Bioorg Med Chem Lett, 1993).

Assays:
Mus musculus [1] = test: Tested for anticonvulsant activity against mice at 4 hr at a peroral dose of 60 mg/Kg by maximal electroshock seizure (MES) test; assay type: functional
Mus musculus [2] = test: Tested for effective dose required to produce anticonvulsant activity against mice at 16 hr (po); assay type: functional
Mus musculus [3] = test: Tested for effective dose required to produce anticonvulsant activity against mice at 4 hr (po); assay type: functional
Mus musculus [4] = test: Tested for anticonvulsant activity against mice at 4 hr at a peroral dose of 200 mg/Kg by maximal electroshock seizure (MES) test; assay type: functional
Mus musculus [5] = test: Tested for anticonvulsant activity against mice at 4 hr at a peroral dose of 75 mg/Kg by maximal electroshock seizure (MES) test; assay type: functional
Mus musculus [6] = test: Tested for anticonvulsant activity against mice at 4 hr at a peroral dose of 35 mg/Kg by maximal electroshock seizure (MES) test; assay type: functional
Mus musculus [7] = test: Tested for anticonvulsant activity against mice at 4 hr at a peroral dose of 10 mg/Kg by maximal electroshock seizure (MES) test; assay type: functional
[8] = Therapeutic index relative to neurotoxicity ([…]) was determined in the rotarod test.
Mus musculus [9] = test: Tested for anticonvulsant activity against mice at 4 hr at a peroral dose of 1 mg/Kg by maximal electroshock seizure (MES) test; assay type: functional
Mus musculus [10] = test: Tested for anticonvulsant activity against mice at 4 hr at a peroral dose of 3 mg/Kg by maximal electroshock seizure (MES) test; assay type: functional
Mus musculus [11] = test: Tested for anticonvulsant activity against mice at 4 hr at a peroral dose of 300 mg/Kg by maximal electroshock seizure (MES) test; assay type: functional
[12] = Mus musculus, po, 4 h, read-out: ED50

| SMILES | Block (Mus musculus [5]) | Block (Mus musculus [7]) | ED50 (Mus musculus [3]; [12]) | also measured |
| --- | --- | --- | --- | --- |
| CC1(C)O[C@@H]2[C@@H](CO[C@@]3(COS(N)(=O)=O)OC(C)(C)O[C@@H]23)O1 [TOPIRAMATE] | – | – | – | Block (Mus musculus [1]): 60%; ED50 (Mus musculus [2]): 720 mg/kg; ED50 (Mus musculus [3]): 53.5 mg/kg |
| CN(C)S(=O)(=O)OC[C@@]12OC[C@H]3OC(C)(C)O[C@H]3[C@@H]1OC(C)(C)O2 | 0% | – | – | Block (Mus musculus [4]): 80% |
| CN(C)S(=O)(=O)OC[C@@]12OC[C@H]3OS(=O)(=O)O[C@H]3[C@@H]1OC(C)(C)O2 | – | 70% | 6.9 mg/kg | Block (Mus musculus [6]): 100% |
| CC1(C)O[C@H]2[C@@H]3OS(=O)(=O)O[C@@H]3CO[C@@]2(COS(N)(=O)=O)O1 | – | 80% | 6.3 mg/kg | selectivity ratio [8]: > 150; ED50 (Mus musculus [2]): 41.5 mg/kg |
| O=C1NC(=O)C(c2ccccc2)(c2ccccc2)N1 [PHENYTOIN] | – | – | 6.4 mg/kg | – |
| CCN(CC)S(=O)(=O)OC[C@@]12OC[C@H]3OS(=O)(=O)O[C@H]3[C@@H]1OC(C)(C)O2 | 100% | 10% | – | – |
| CCCCNS(=O)(=O)OC[C@@]12OC[C@H]3OS(=O)(=O)O[C@H]3[C@@H]1OC(C)(C)O2 | – | 30% | – | Block (Mus musculus [6]): 100% |
| C=CCNS(=O)(=O)OC[C@@]12OC[C@H]3OS(=O)(=O)O[C@H]3[C@@H]1OC(C)(C)O2 | – | 70% | – | Block (Mus musculus [9]): 0% |
| CNS(=O)(=O)OC[C@@]12OC[C@H]3OC(C)(C)O[C@H]3[C@@H]1OC(C)(C)O2 | 60% | – | – | Block (Mus musculus [4]): 100% |
| CCNS(=O)(=O)OC[C@@]12OC[C@H]3OS(=O)(=O)O[C@H]3[C@@H]1OC(C)(C)O2 | – | – | 14.4 mg/kg | Block (Mus musculus [6]): 100%; Block (Mus musculus [10]): 0% |
| CC1(C)O[C@H]2[C@@H]3OS(=O)(=O)O[C@@H]3CO[C@@]2(COS(=O)(=O)Nc2ccccc2)O1 | 0% | – | – | Block (Mus musculus [11]): 0% |
| CC1(C)O[C@H]2[C@@H]3OS(=O)(=O)O[C@@H]3CO[C@@]2(COS(=O)(=O)NC2CCCCCCC2)O1 | 30% | 0% | – | – |
| CNS(=O)(=O)OC[C@@]12OC[C@H]3OS(=O)(=O)O[C@H]3[C@@H]1OC(C)(C)O2 | – | 100% | 7.4 mg/kg | – |
| CC1(C)O[C@H]2[C@@H]3OS(=O)(=O)O[C@@H]3CO[C@@]2(COS(=O)(=O)NC2CCC2)O1 | – | 90% | – | Block (Mus musculus [9]): 0% |
| CCCCCCCCNS(=O)(=O)OC[C@@]12OC[C@H]3OS(=O)(=O)O[C@H]3[C@@H]1OC(C)(C)O2 | 100% | 0% | – | – |
| CC1(C)O[C@H]2[C@@H]3OS(=O)(=O)O[C@@H]3CO[C@@]2(COS(=O)(=O)NCC(F)(F)F)O1 | 90% | 40% | – | – |
| CC1(C)O[C@H]2[C@@H]3OS(=O)(=O)O[C@@H]3CO[C@@]2(COS(=O)(=O)NC2CC2)O1 | – | 90% | 7.3 mg/kg | Block (Mus musculus [9]): 0% |
| CC1(C)O[C@H]2[C@@H]3OS(=O)(=O)O[C@@H]3CO[C@@]2(COS(=O)(=O)NCc2ccccc2)O1 | 100% | 0% | – | – |
| CC1(C)O[C@H]2[C@@H]3OS(=O)O[C@@H]3CO[C@@]2(COS(N)(=O)=O)O1 (stereo in doubt; 3a) | – | 70% | 6.3 mg/kg | – |
| CC1(C)O[C@H]2[C@@H]3OS(=O)O[C@@H]3CO[C@@]2(COS(N)(=O)=O)O1 (stereo in doubt; 3b) | – | – | – | ED50 (Mus musculus [3]): 6.5 mg/kg |
